Test [1] relates to TC-1 tumors. Briefly: Therapeutic vaccination in the established TC-1 tumor model. It counts as in vivo, C57BL/6 mice. As to conditions: single subcutaneous vaccination day 6 post-tumor challenge, E7 protein 50 μg plus adjuvant 25 μg/agent; 90 days observation. The text has this: (§1) C57BL/6 mice were challenged subcutaneously with 1×10^5 live TC-1 cells into the right flank.
Test [2] concerns intratumoral CD8^+ T cells and CD4^+Foxp3^+ Treg cells in TC-1 tumor. The test can be described thus: Intratumoral CD8+ T cells and CD4+Foxp3+ Treg cells by confocal microscopy. It counts as in vivo, mice. As to conditions: one week post-vaccination. The method, then:
(§2) Spleens and/or tumor draining lymph nodes (TdLNs) were processed as described previously (7). For memory T cell typing, lymphocytes were stained with anti-CD8-APC-Cy7, anti-CD62L-FITC, and anti-CD44-APC antibodies. For intracellular cytokine staining, lymphocytes (1×10^6 cells/mL) were stimulated either with 10 μg/mL E749-57 peptide for 2 hrs followed by incubation with GolgiPlug (1 μl/mL, BD PharMingen) overnight or with phorbol 12-myristate 13-acetate (PMA) (5 ng/ml, Sigma) and ionomycin (500 ng/ml, Sigma) for 2 hrs followed by incubation with GolgiPlug (1 μl/ml) for an additional 4 hrs. Cells were first stained with anti-CD44-APC and anti-CD8-APC-Cy7, fixed with 4% paraformaldehyde, and then stained with anti-IFN-γ-PE-Cy7, anti-IL-2-Percp-Cy5.5, anti-TNF-PE, or isotype controls followed by acquisition and analysis as previously reported (12). Intratumoral CD8^+ T cells and CD4^+Foxp3^+ Treg cells were analyzed using confocal microscopy as described (12).
Mice bearing ˜3-4 mm TC-1 tumor were vaccinated subcutaneously with various vaccine formulations. One week post-vaccination, tumors were harvested and analyzed for the presence of intratumoral CD8^+ T cells and CD4^+FoxP3^+ Treg cells using confocal microscopy. […] (FIG. 3A, B).

The test system of test [3] is E749-57 peptide-specific CD8^+ T cells. The test can be described thus: Primary CD8+ T cell intracellular IFN-γ response of tumor draining lymphocytes. In kind it is in vivo, mice. The following applies: one week post-vaccination. On the procedure: as §2
Test [4] concerns 3LL pulmonary metastatic tumors. The test can be described thus: 3LL pulmonary metastasis model, vaccination with survivin. In kind it is in vivo, mice. As to conditions: single subcutaneous vaccination day 6 with SVN 50 μg plus adjuvant; lungs day 27. The method, then: For the pulmonary tumor model, 2×10^5 live 3LL cells were injected intravenously into the tail vein of mice. Mice were vaccinated subcutaneously either once on day 6 or twice on days 6 and 13 post-tumor challenge with various vaccine formulations containing survivin (SVN) protein (50 μg) alone as control or with SA-4-1BBL (25 μg), MPL (25 gig), or the combination of both agents (25 μg/agent). Mice were euthanized 27 days post-tumor challenge for analysis of lung tumor burden as described (12, 18).

The test system of test [5] is TC-1 tumors. Briefly: TC-1 tumor model with antibody depletion of CD8+ or CD4+ T cells before vaccination. It counts as in vivo, mice. As to conditions: E7 + MPL. The method, then:
as §1
To test if a high CD8^+ Teff/Treg cell ratio can serve as a predictor of vaccine therapeutic efficacy, we used antibodies against CD8 and CD4 molecules to deplete CD8^+ Teff and Treg cells, respectively. Mice with established TC-1 tumors were treated with depleting antibodies one day before vaccination with E7 protein admixed with SA-4-1BBL/MPL or MPL as monotherapy.

A further test deals with TC-1 target cells. The test can be described thus: Cytotoxicity assay. It counts as cell-based, mice. The following applies: splenocytes one week post-vaccination, 5 days E749-57 + IL-2, effectors against TC-1 for 4 hrs. On the procedure: Mice with ˜3-4 mm TC-1 tumors in diameter were vaccinated subcutaneously with vaccine formulations containing E7 protein (50 μg) alone or with SA-4-1BBL (25 μg), MPL (25 μg), or the combination of both agents (25 μg/agent). One week post-vaccination, splenocytes were cultured with 10 μg of E749-57 peptide/mL in complete MLR medium supplemented with 50 IU/mL of IL-2. Viable lymphocytes were harvested 5 days later using a Ficoll gradient and used as effectors at various ratios against TC-1 target cells for 4 hrs as described (41).

Turning to “3-O-desacyl-4′-monophosphoryl lipid A [MPL]”, in the test with TC-1 tumors [1], the “eradication of established TC-1 tumors, mice tumor-free” value worked out at 50%. In test [2] (TC-1 tumor), the “intratumoral Teff/Treg cell ratio” value is “no effect”. The “number of intratumoral CD8+ T cells infiltration” value in test [2] (TC-1 tumor) is listed as “moderate effect”. In test [2] (~3-4 mm TC-1 tumor, versus PBS controls or E7 protein alone), the “number of intratumoral Treg cells” value was “did not have detectable effect”. Further, in test [3], the “E7 TAA-specific CD8+ T cell IFN-γ response (primary)” value is on record as “failed to do so”. Besides, in test [4], the “control of tumor growth (lung weight and presence of tumor nodules)” value was “statistically significant (P<0.05) effect in controlling tumor growth”. Besides, the therapeutic efficacy in the test on TC-1 tumors [5] (depletion of CD4+ T cells including Treg cells one day before vaccination) was 100%; in the test on TC-1 tumors [5] (without depletion), 50%. The TC-1 killing response entry with TC-1 target cells is given as “failed to do so”.

Source of the values: patent US20140199347A1, “ADJUVANT COMPOSITIONS WITH 4-1BBL” (UNIVERSITY OF LOUISVILLE RESEARCH FOUNDATION, INC., priority 2011, published 2014).
